Our source for the TGI values is PubChem BioAssay (NCI).

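Assay format: 96-well plates, 48-hour exposure. TGI denotes the concentration required for complete inhibition of growth.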 Some results are limits rather than exact numbers.

Among the test systems are K-562 leukemia; UACC-257 melanoma; SK-MEL-28 melanoma; HCT-116 colon; MOLT-4 leukemia; HCC-2998 colon; SN12C renal; UACC-62 melanoma; UO-31 renal; HOP-62 NSCLC; SNB-19 CNS; SK-MEL-2 melanoma; IGROV1 ovarian; SF-539 CNS; HS 578T breast; PC-3 prostate; MDA-MB-231 breast; BT-549 breast; NCI/ADR-RES ovarian.
Holding throughout (assay): NCI-60 cell line screen, 48 h

As for `O=c1[nH]cnc2c1CCCN2`, the TGI with K-562 leukemia, with UACC-257 melanoma, in the assay on SK-MEL-28 melanoma, in the assay with HCT-116 colon, in the assay with MOLT-4 leukemia and in the assay on HCC-2998 colon was over 100 µM each time. Moreover, the TGI with SN12C renal, in the assay with UACC-62 melanoma, in the assay with UO-31 renal, in the assay on HOP-62 NSCLC, in the assay on SNB-19 CNS and in the assay with SK-MEL-2 melanoma was over 100 µM throughout. The same compound yielded a TGI in the assay on IGROV1 ovarian of over 100 µM.

`CCOc1ccc(NC(=O)C2=C(C)NC(C)=C(C(=O)Nc3ccc(OCC)cc3)C2c2ccccc2)cc1`: the TGI in the assay with K-562 leukemia, in the assay on UACC-257 melanoma, with SK-MEL-28 melanoma, in the assay with MOLT-4 leukemia, with HCC-2998 colon and in the assay on SN12C renal was over 100 µM in each case. For the same compound, the TGI in the assay with UO-31 renal, in the assay on HOP-62 NSCLC, in the assay with SNB-19 CNS, with SK-MEL-2 melanoma, in the assay on IGROV1 ovarian and in the assay with SF-539 CNS was over 100 µM each time.

Take `COc1cc(/C=C2\C(=O)N(C(=O)c3ccc(NC(C)=O)cc3)N=C2C)ccc1O`: the TGI in the assay with K-562 leukemia, with UACC-257 melanoma, in the assay on SK-MEL-28 melanoma, in the assay on HCT-116 colon, with MOLT-4 leukemia and with HCC-2998 colon was over 100 µM each time. In addition, the TGI with SN12C renal, in the assay with UO-31 renal, in the assay with HOP-62 NSCLC, with SNB-19 CNS and with SF-539 CNS was over 100 µM each time.

With `CN(Cc1ccccc1)C(=NC#N)N(C)Cc1ccccc1`, the TGI in the assay on UACC-257 melanoma, in the assay with SK-MEL-28 melanoma, in the assay on HCT-116 colon, in the assay with HCC-2998 colon, with SN12C renal and with UACC-62 melanoma was over 100 µM in each case. Further, the TGI with UO-31 renal, with HOP-62 NSCLC, with SNB-19 CNS, in the assay on SK-MEL-2 melanoma, in the assay with IGROV1 ovarian and in the assay on SF-539 CNS was over 100 µM in each case.

Turning to `COc1cc(/C=C\c2cccnc2)cc(OC)c1OC`, the TGI in the assay on K-562 leukemia is over 100 µM; in the assay with UACC-257 melanoma it was over 100 µM; in the assay with SK-MEL-28 melanoma it was over 100 µM; in the assay on HCT-116 colon, over 100 µM; in the assay on MOLT-4 leukemia, 43.1 µM; in the assay on SN12C renal it was over 100 µM. The TGI in the assay on UACC-62 melanoma, with UO-31 renal, with HOP-62 NSCLC, in the assay with SNB-19 CNS, in the assay on IGROV1 ovarian and in the assay with SF-539 CNS was over 100 µM each time.

Take `Brc1cc2c(cc1C1SCCS1)OCO2`: the TGI in the assay with K-562 leukemia, in the assay on UACC-257 melanoma, with SK-MEL-28 melanoma, in the assay on HCT-116 colon, in the assay on MOLT-4 leukemia and with HCC-2998 colon was over 100 µM in each case. The TGI in the assay with UACC-62 melanoma, with UO-31 renal, in the assay on HOP-62 NSCLC, in the assay with SNB-19 CNS, in the assay on SK-MEL-2 melanoma and in the assay with IGROV1 ovarian was over 100 µM in each case. Moreover, the TGI in the assay on SF-539 CNS is over 100 µM.

Regarding `COc1ccccc1/C=C1\CCC(CCN2CCOCC2)C1=O` (centres undefined), the TGI in the assay with K-562 leukemia, in the assay with UACC-257 melanoma, with SK-MEL-28 melanoma, in the assay with HCT-116 colon, in the assay with MOLT-4 leukemia and in the assay on HCC-2998 colon was over 100 µM in each case. Further, the TGI in the assay on SN12C renal, with UACC-62 melanoma, in the assay with UO-31 renal, in the assay on HOP-62 NSCLC, in the assay with SNB-19 CNS and in the assay with SK-MEL-2 melanoma was over 100 µM throughout. For the same compound, the TGI with IGROV1 ovarian and in the assay on SF-539 CNS was over 100 µM in each case.

As for `COc1ccc(C=C(c2ccc(OCc3ccccc3)cc2)c2ccc(OCc3ccccc3)cc2)cc1`, the TGI with UACC-257 melanoma, in the assay with SK-MEL-28 melanoma, in the assay with HCC-2998 colon, in the assay on SN12C renal, in the assay with UACC-62 melanoma and in the assay on UO-31 renal was over 100 µM each time. Besides, the TGI in the assay with HOP-62 NSCLC, in the assay with SNB-19 CNS, in the assay on SK-MEL-2 melanoma, with IGROV1 ovarian and with SF-539 CNS was over 100 µM throughout.

For `COC(=O)/C=C(/OC)[C@H](C)[C@H](/C=C/c1csc(-c2csc(C(C)C)n2)n1)OC`, the TGI with K-562 leukemia, in the assay on UACC-257 melanoma, with HS 578T breast, with SK-MEL-28 melanoma, in the assay on PC-3 prostate and with HCT-116 colon was over 100 µM each time. Moreover, the TGI in the assay with MOLT-4 leukemia, with SN12C renal, in the assay on MDA-MB-231 breast, in the assay on UACC-62 melanoma, in the assay on UO-31 renal and with HOP-62 NSCLC was over 100 µM each time. The TGI in the assay on SNB-19 CNS, in the assay on BT-549 breast, in the assay with SK-MEL-2 melanoma, with NCI/ADR-RES ovarian, in the assay with IGROV1 ovarian and in the assay on SF-539 CNS was over 100 µM each time.

Take `COc1ccc2[nH]cc(CCNC(=O)[C@](O)(Cc3cn(C)c4ccccc34)[C@@]3(O)OCC(O)C3O)c2c1` (some centres undefined): the TGI with K-562 leukemia, with UACC-257 melanoma, with SK-MEL-28 melanoma, in the assay on HCT-116 colon, with MOLT-4 leukemia and in the assay on HCC-2998 colon was over 100 µM in each case. Besides, the TGI in the assay on SN12C renal, with UACC-62 melanoma, in the assay with HOP-62 NSCLC, with SNB-19 CNS, in the assay with SK-MEL-2 melanoma and in the assay with IGROV1 ovarian was over 100 µM each time. The TGI in the assay with SF-539 CNS was over 100 µM.
